The experiment addresses T1, SHP2 protein (Homo sapiens, UniProt Q06124).
T1 sequence (Q06124 1-593): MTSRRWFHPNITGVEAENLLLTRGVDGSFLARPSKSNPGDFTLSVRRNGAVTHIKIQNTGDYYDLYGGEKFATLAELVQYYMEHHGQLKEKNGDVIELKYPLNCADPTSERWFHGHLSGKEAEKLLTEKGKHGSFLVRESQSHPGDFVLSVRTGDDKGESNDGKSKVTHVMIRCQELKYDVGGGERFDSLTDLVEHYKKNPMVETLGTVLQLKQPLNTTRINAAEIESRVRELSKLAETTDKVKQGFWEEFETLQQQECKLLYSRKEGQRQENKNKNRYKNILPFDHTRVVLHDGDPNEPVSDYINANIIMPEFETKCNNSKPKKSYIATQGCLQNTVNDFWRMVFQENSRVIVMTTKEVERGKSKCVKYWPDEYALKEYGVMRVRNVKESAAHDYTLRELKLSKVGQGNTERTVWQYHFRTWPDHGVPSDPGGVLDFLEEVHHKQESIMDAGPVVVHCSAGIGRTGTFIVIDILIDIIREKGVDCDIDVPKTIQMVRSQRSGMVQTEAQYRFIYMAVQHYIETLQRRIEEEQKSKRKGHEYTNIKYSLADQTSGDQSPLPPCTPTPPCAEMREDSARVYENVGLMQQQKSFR
Briefly: Measurement of SHP2 protein degradation in MV-4-11 cells (western blotting). Further details: endogenous in cells. Type of experiment: cell-based. As to conditions: harvested after 24 hours. How it is done: MV-4-11 cells were treated with the synthesized Example compounds, and the amount of SHP2 protein present in the cells was measured using western blotting detection. The protocol for the experiment conducted using MV-4-11 cells is as follows.
[Culture] MV-4-11 cells were resuspended in IMDM MEDIUM (Hyclone, SH30228.01), 5% FBS (Hyclone, SV30207.02), 1% Penicillin-streptomycin (Welgene, LS 202-02) media and seeded at 1×10^6/mL in 12-well plates (1 mL each).
[Compound treatment]12-well plates were treated as follows. 10 mM stock dissolved in DMSO was serially diluted 1/100 or 1/10 with media, and the compounds were treated to the cells at a final concentration of 0.01, 0.1, 1 μM or 0.001, 0.01, 0.1 μM, and harvested after 24 hours. For the negative control group, DMSO diluted 1/100 or 1/1000 in media was added (3 μL DMSO+297 μL media or 1 μL DMSO+999 μL media).
[Harvest] Each well was pipetted with a 1 mL pipette, collected in a 1.5 mL microtube, and centrifuged (500 g, 5 min, 4° C.). The supernatant was removed, washed with PBS, and centrifuged again (500 g, 5 min, 4° C.). The supernatant was removed and a pellet was prepared.
[Cell lysis and sample preparation] Lysis buffer was prepared as follows. RIPA buffer (Biosesang, RC2038-050-00)+0.5 mM PMSF (SIGMA, P7626)+1× Protease/Phosphatase Inhibitor (Cell signaling, 5872S) were added at 50 μL per tube and incubated on ice for 30 minutes (vortexed at 0 and 30 minutes). After sonication (10 sec pulse, 30 sec rest, 5 cycles, 70% amplification) and centrifugation (15,000 g, 15 min, 4° C.), only the supernatant was transferred to a microtube. RIPA buffer 7.5 μL and sample 2.5 μL were added to a 96-well plate to dilute to 1/4, and then BCA Protein Assay Kit (iNtRON, 21071) A and B were mixed in a 50:1 ratio and 200 μL each was added. After that, the plate was incubated at 37° C. for 30 minutes and left at room temperature for 10 minutes. After shaking for 10 seconds with a SYNERGY H1 microplate reader from BioTek, the absorbance was measured at 562 nm. The protein was quantified using the measured value to prepare a sample, which was then incubated at 70° C. for 10 minutes. The sample buffer used at this time is a mixture of NuPAGE or Bolt 4× sample buffer (Invitrogen) and each 10× sample reducing agent according to the gel to be used, and RIPA buffer was used for protein dilution.
[Western blotting detection] Equal amounts of samples were loaded onto NuPAGE or Bolt Bis-tris 4-12% gradient gels and run (200 V, 35 min). This was transferred to […] NC membranes using Trans-blot Turbo (BIO-RAD) (1.3 A constant, 25 V limit, 15 min), and was blocked at room temperature for 1 hour with Skim milk or Intercept Blocking Buffer (LI-COR, 927-60001):0.1% TBST=1:1. Anti-SHPTP2 Mouse (1:500 in 2% BSA/0.2% TBST, size: 70 kDa, Santacruz sc-7384) was incubated overnight at 4° C., and Anti-GAPDH Rabbit (1:2,000 in 2% BSA/0.2% TBST, size: 37 kDa, CST #2118) was incubated at room temperature for 1.5 hours or 3 hours. After washing three times for 5 minutes each with 0.2% TBST washing buffer, secondary antibodies Anti-Mouse IgG (1:5,000 in 2% BSA/0.2% TBST, CST) and IRDye® 680RD Goat anti-Rabbit IgG Secondary Antibody (1:10,000 in 2% BSA/0.2% TBST, LI-COR 926-68071) were added, and incubated on a rocker at room temperature for 45 minutes. The resultants were washed five times for 5 minutes each with 0.2% TBST washing buffer, and detected using LI-COR's Odyssey. GAPDH was detected with a 700 nm channel, and SHPTP2 was detected using SuperSignal West Pico PLUS Chemiluminescent Substrate.

As for `Cc1ncsc1-c1ccc(CNC(=O)[C@@H]2C[C@@H](O)CN2C(=O)[C@@H](NC(=O)C2(F)CC2)C(C)(C)C)c(OC2CCN(CC3CCN(c4nccc(Sc5cnc(N6CCC(C)(CN)CC6)cn5)c4Cl)CC3)CC2)c1` [Example 9, (2S,4R)—N-(2-((1-((1-(4-((5-(4-(aminomethyl)-4-methylpiperidin-1-yl)pyrazin-2-yl)thio)-3-chloropyridin-2-yl)piperidin-4-yl)methyl)piperidin-4-yl)oxy)-4-(4-methylthiazol-5-yl)benzyl)-1-((S)-2-(1-fluorocyclopropane-1-carboxamido)-3,3-dimethylbutanoyl)-4-hydroxypyrrolidine-2-carboxamide], the SHP2% degradation (0.01 μM) came out at 4.0% and the SHP2% degradation (0.1 μM) is given as 81.1%.

Take `Cc1ncsc1-c1ccc(CNC(=O)[C@@H]2C[C@@H](O)CN2C(=O)[C@@H](NC(=O)C2(F)CC2)C(C)(C)C)c(O[C@H]2CC[C@H](C(=O)N3CC(Nc4cccc(Sc5cnc(N6CCC(C)(CN)CC6)cn5)c4Cl)C3)CC2)c1` [Example 11, (2S,4R)—N-(2-(((1R,4S)-4-(3-((3-((5-(4-(aminomethyl)-4-methylpiperidin-1-yl)pyrazin-2-yl)thio)-2-chlorophenyl)amino)azetidine-1-carbonyl)cyclohexyl)oxy)-4-(4-methylthiazol-5-yl)benzyl)-1-((S)-2-(1-fluorocyclopropane-1-carboxamido)-3,3-dimethylbutanoyl)-4-hydroxypyrrolidine-2-carboxamide]: the SHP2% degradation by setting is: (0.01 μM) 83%; (0.1 μM) 97.9%.

As for `Cc1ncsc1-c1ccc(CNC(=O)[C@@H]2C[C@@H](O)CN2C(=O)[C@@H](NC(=O)C2(F)CC2)C(C)(C)C)c(O[C@H]2CC[C@H](C(=O)N3CC(Nc4cccc(Sc5cnc(N6CCC(C)(N)CC6)cn5)c4Cl)C3)CC2)c1` [Example 12, (2S,4R)—N-(2-(((1R,4S)-4-(3-((3-((5-(4-amino-4-methylpiperidin-1-yl)pyrazin-2-yl)thio)-2-chlorophenyl)amino)azetidine-1-carbonyl)cyclohexyl)oxy)-4-(4-methylthiazol-5-yl)benzyl)-1-((S)-2-(1-fluorocyclopropane-1-carboxamido)-3,3-dimethylbutanoyl)-4-hydroxypyrrolidine-2-carboxamide], the SHP2% degradation by setting is: (0.01 μM) 83.7%; (0.1 μM) 98.6%.

In the case of `Cc1ncsc1-c1ccc(CNC(=O)[C@@H]2C[C@@H](O)CN2C(=O)[C@@H](NC(=O)C2(F)CC2)C(C)(C)C)c(O[C@H]2CC[C@H](C(=O)N3CC(Nc4cccc(Sc5cnc(N6CCC7(CC6)CO[C@@H](C)[C@H]7N)cn5)c4Cl)C3)CC2)c1` [Example 13, (2S,4R)—N-(2-(((1R,4S)-4-(3-((3-((5-((3S,4S)-4-amino-3-methyl-2-oxa-8-azaspiro[4.5]decan-8-yl)pyrazin-2-yl)thio)-2-chlorophenyl)amino)azetidine-1-carbonyl)cyclohexyl)oxy)-4-(4-methylthiazol-5-yl)benzyl)-1-((S)-2-(1-fluorocyclopropane-1-carboxamido)-3,3-dimethylbutanoyl)-4-hydroxypyrrolidine-2-carboxamide], the SHP2% degradation is, setting by setting: (0.01 μM) 93.8%; (0.1 μM) 99.5%.

Consider `Cc1ncsc1-c1ccc(CNC(=O)[C@@H]2C[C@@H](O)CN2C(=O)[C@@H](NC(=O)C2(F)CC2)C(C)(C)C)c(O[C@H]2CC[C@H](C(=O)N3CC(Nc4cccc(Sc5cnc(N6CCC7(CC6)Cc6ccccc6[C@H]7N)cn5)c4Cl)C3)CC2)c1` [Example 14, (2S,4R)—N-(2-(((1R,4S)-4-(3-((3-((5-((S)-1-amino-1,3-dihydrospiro[indene-2,4′-piperidin]-1′-yl)pyrazin-2-yl)thio)-2-chlorophenyl)amino)azetidine-1-carbonyl)cyclohexyl)oxy)-4-(4-methylthiazol-5-yl)benzyl)-1-((S)-2-(1-fluorocyclopropane-1-carboxamido)-3,3-dimethylbutanoyl)-4-hydroxypyrrolidine-2-carboxamide], for which the SHP2% degradation runs as follows: (0.01 μM) 1.2%; (0.1 μM) 85.1%.
